Results taken from article PMC6019379, “RecA-like domain 2 of DNA-dependent ATPase A domain, a SWI2/SNF2 protein, mediates conformational integrity and ATP hydrolysis” (Bioscience Reports, 2018).

How the values were obtained:
Format in all cases: binding
[1] = biological target: T1, ADAAD (Active DNA-dependent ATPase A domain) (Bos taurus, UniProt Q9TTA5); assay: intrinsic tryptophan fluorescence titration (ex […] nm, em […] nm); conditions: representative spectra only
T1 construct: gene SMARCAL1; ATPase domain fragment of bovine SMARCAL1 (RecA-like domains 1 and 2), plasmid pCP101 (pET-14b, NdeI/XhoI), E. coli BL21(DE3), Ni-NTA then DEAE-sepharose; tag removal not mentioned

[2] = biological target: T2, ADAAD (Active DNA-dependent ATPase A domain) (Bos taurus, UniProt Q9TTA5, R815K); assay: intrinsic tryptophan fluorescence titration (ex […] nm, em […] nm), one-site fit
T2 construct: gene SMARCAL1; ATPase domain fragment of bovine SMARCAL1 (RecA-like domains 1 and 2), plasmid pCP101 (pET-14b, NdeI/XhoI), E. coli BL21(DE3), Ni-NTA then DEAE-sepharose; tag removal not mentioned

[3] = biological target: T3, ADAAD (Active DNA-dependent ATPase A domain) (Bos taurus, UniProt Q9TTA5, S778A); assay: as above
T3 construct: gene SMARCAL1; ATPase domain fragment of bovine SMARCAL1 (RecA-like domains 1 and 2), plasmid pCP101 (pET-14b, NdeI/XhoI), E. coli BL21(DE3), Ni-NTA then DEAE-sepharose; tag removal not mentioned

[4] = biological target: T4, ADAAD (Active DNA-dependent ATPase A domain) (Bos taurus, UniProt Q9TTA5, F727W); assay: as above
T4 construct: gene SMARCAL1; ATPase domain fragment of bovine SMARCAL1 (RecA-like domains 1 and 2), plasmid pCP101 (pET-14b, NdeI/XhoI), E. coli BL21(DE3), Ni-NTA then DEAE-sepharose; tag removal not mentioned

[5] = biological target: T5, ADAAD (Active DNA-dependent ATPase A domain) (Bos taurus, UniProt Q9TTA5, D811H); assay: as above
T5 construct: gene SMARCAL1; ATPase domain fragment of bovine SMARCAL1 (RecA-like domains 1 and 2), plasmid pCP101 (pET-14b, NdeI/XhoI), E. coli BL21(DE3), Ni-NTA then DEAE-sepharose; tag removal not mentioned

[6] = biological target: T6, ADAAD (Active DNA-dependent ATPase A domain) (Bos taurus, UniProt Q9TTA5, T780A); assay: as above
T6 construct: gene SMARCAL1; ATPase domain fragment of bovine SMARCAL1 (RecA-like domains 1 and 2), plasmid pCP101 (pET-14b, NdeI/XhoI), E. coli BL21(DE3), Ni-NTA then DEAE-sepharose; tag removal not mentioned

[7] = biological target: T7, ADAAD (Active DNA-dependent ATPase A domain) (Bos taurus, UniProt Q9TTA5, F727A/R812A); assay: as above
T7 construct: gene SMARCAL1; ATPase domain fragment of bovine SMARCAL1 (RecA-like domains 1 and 2), plasmid pCP101 (pET-14b, NdeI/XhoI), E. coli BL21(DE3), Ni-NTA then DEAE-sepharose; tag removal not mentioned

[8] = biological target: T8, ADAAD (Active DNA-dependent ATPase A domain) (Bos taurus, UniProt Q9TTA5, D811H/H549D); assay: as above
T8 construct: gene SMARCAL1; ATPase domain fragment of bovine SMARCAL1 (RecA-like domains 1 and 2), plasmid pCP101 (pET-14b, NdeI/XhoI), E. coli BL21(DE3), Ni-NTA then DEAE-sepharose; tag removal not mentioned

[9] = biological target: T9, ADAAD (Active DNA-dependent ATPase A domain) (Bos taurus, UniProt Q9TTA5, R812A); assay: as above
T9 construct: gene SMARCAL1; ATPase domain fragment of bovine SMARCAL1 (RecA-like domains 1 and 2), plasmid pCP101 (pET-14b, NdeI/XhoI), E. coli BL21(DE3), Ni-NTA then DEAE-sepharose; tag removal not mentioned

[10] = biological target: T10, ADAAD (Active DNA-dependent ATPase A domain) (Bos taurus, UniProt Q9TTA5, R815H); assay: as above
T10 construct: gene SMARCAL1; ATPase domain fragment of bovine SMARCAL1 (RecA-like domains 1 and 2), plasmid pCP101 (pET-14b, NdeI/XhoI), E. coli BL21(DE3), Ni-NTA then DEAE-sepharose; tag removal not mentioned

[11] = biological target: T11, ADAAD (Active DNA-dependent ATPase A domain) (Bos taurus, UniProt Q9TTA5, F727A); assay: as above
T11 construct: gene SMARCAL1; ATPase domain fragment of bovine SMARCAL1 (RecA-like domains 1 and 2), plasmid pCP101 (pET-14b, NdeI/XhoI), E. coli BL21(DE3), Ni-NTA then DEAE-sepharose; tag removal not mentioned

[12] = biological target: T12, ADAAD (Active DNA-dependent ATPase A domain) (Bos taurus, UniProt Q9TTA5, R815A); assay: as above
T12 construct: gene SMARCAL1; ATPase domain fragment of bovine SMARCAL1 (RecA-like domains 1 and 2), plasmid pCP101 (pET-14b, NdeI/XhoI), E. coli BL21(DE3), Ni-NTA then DEAE-sepharose; tag removal not mentioned

[13] = biological target: T13, ADAAD (Active DNA-dependent ATPase A domain) (Bos taurus, UniProt Q9TTA5, H814A); assay: as above
T13 construct: gene SMARCAL1; ATPase domain fragment of bovine SMARCAL1 (RecA-like domains 1 and 2), plasmid pCP101 (pET-14b, NdeI/XhoI), E. coli BL21(DE3), Ni-NTA then DEAE-sepharose; tag removal not mentioned
T13 sequence (Q9TTA5 221-940 H814A limits assumed): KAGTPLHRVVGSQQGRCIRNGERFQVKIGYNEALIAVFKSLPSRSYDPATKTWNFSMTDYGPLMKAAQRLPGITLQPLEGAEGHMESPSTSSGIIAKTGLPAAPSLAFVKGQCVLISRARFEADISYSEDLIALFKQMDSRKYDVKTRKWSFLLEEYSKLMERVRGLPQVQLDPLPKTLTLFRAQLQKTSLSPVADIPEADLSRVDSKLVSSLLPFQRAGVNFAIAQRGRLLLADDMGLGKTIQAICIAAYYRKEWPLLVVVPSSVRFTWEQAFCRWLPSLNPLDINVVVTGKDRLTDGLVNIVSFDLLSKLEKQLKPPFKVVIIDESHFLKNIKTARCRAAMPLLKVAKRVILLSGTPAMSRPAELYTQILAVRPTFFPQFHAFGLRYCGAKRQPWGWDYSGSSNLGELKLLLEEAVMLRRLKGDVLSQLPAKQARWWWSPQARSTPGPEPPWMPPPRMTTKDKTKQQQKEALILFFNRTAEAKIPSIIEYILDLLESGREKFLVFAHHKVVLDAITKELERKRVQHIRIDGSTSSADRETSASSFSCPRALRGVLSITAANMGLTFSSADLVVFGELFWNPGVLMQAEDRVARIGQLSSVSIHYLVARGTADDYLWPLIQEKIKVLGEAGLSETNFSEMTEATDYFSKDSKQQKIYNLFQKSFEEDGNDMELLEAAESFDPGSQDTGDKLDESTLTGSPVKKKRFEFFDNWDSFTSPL

T1 sequence (Q9TTA5 221-940 limits assumed): as the sequence (Q9TTA5 221-940 H814A limits assumed) above, with A594H counted along it
T12 sequence (Q9TTA5 221-940 R815A limits assumed): as the sequence (Q9TTA5 221-940 H814A limits assumed) above, with A594H, R595A counted along it
T4 sequence (Q9TTA5 221-940 F727W limits assumed): as the sequence (Q9TTA5 221-940 H814A limits assumed) above, with F507W, A594H counted along it
T8 sequence (Q9TTA5 221-940 H549D/D811H limits assumed): as the sequence (Q9TTA5 221-940 H814A limits assumed) above, with H329D, D591H, A594H counted along it
T2 sequence (Q9TTA5 221-940 R815K limits assumed): as the sequence (Q9TTA5 221-940 H814A limits assumed) above, with A594H, R595K counted along it
T3 sequence (Q9TTA5 221-940 S778A limits assumed): as the sequence (Q9TTA5 221-940 H814A limits assumed) above, with S558A, A594H counted along it
T10 sequence (Q9TTA5 221-940 R815H limits assumed): as the sequence (Q9TTA5 221-940 H814A limits assumed) above, with A594H, R595H counted along it
T9 sequence (Q9TTA5 221-940 R812A limits assumed): as the sequence (Q9TTA5 221-940 H814A limits assumed) above, with R592A, A594H counted along it
T11 sequence (Q9TTA5 221-940 F727A limits assumed): as the sequence (Q9TTA5 221-940 H814A limits assumed) above, with F507A, A594H counted along it
T5 sequence (Q9TTA5 221-940 D811H limits assumed): as the sequence (Q9TTA5 221-940 H814A limits assumed) above, with D591H, A594H counted along it
T7 sequence (Q9TTA5 221-940 F727A/R812A limits assumed): as the sequence (Q9TTA5 221-940 H814A limits assumed) above, with F507A, R592A, A594H counted along it
T6 sequence (Q9TTA5 221-940 T780A limits assumed): as the sequence (Q9TTA5 221-940 H814A limits assumed) above, with T560A, A594H counted along it

Kd [2]: 1200 nM
Kd [3]: 1900 nM
Kd [4]: 1000 nM
Kd [5]: 3200 nM
Kd [6]: 1000 nM
Kd [7]: 1700 nM
Kd [8]: 2800 nM
Kd [9]: 1600 nM
Kd [10]: 1300 nM
Kd [11]: 1600 nM
Kd [12]: 1200 nM
Kd [13]: 1600 nM
Compound: Nc1ncnc2c1ncn2[C@@H]1O[C@H](COP(=O)(O)OP(=O)(O)OP(=O)(O)O)[C@@H](O)[C@H]1O [ATP]
intrinsic tryptophan fluorescence titration (ex 295 nm, em 340 nm) [1]: Representative fluorescence spectra of ADAAD titrated with (A). ATP; (B) DNA.
